Consider 7 cell lines from the supplement of paper PMC10307832.

Holding throughout (experiment): relative viability (nuclei count vs DMSO), 5 days (fraction); higher = more cells survive
Compound in the test “CAP-232 + Bortezomib”: C[C@H]([C@@H](C(=O)N)NC(=O)[C@@H]1CSSC[C@@H](C(=O)N[C@H](C(=O)N[C@@H](C(=O)N[C@H](C(=O)N1)CCCCN)CC2=CNC3=CC=CC=C32)CC4=CC=C(C=C4)O)NC(=O)[C@@H](CC5=CC=CC=C5)N)O [CAP-232] + CC(C)C[C@H](NC(=O)[C@H](Cc1ccccc1)NC(=O)c1cnccn1)B(O)O [Bortezomib] (partner 0.002 µM)
Summed up: (§1)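 Lung cancer cell lines, seeded in 1536-well plates, were treated the following day by pin tool with a single drug or with five library-drug doses (not always all listed) in √10 steps on top of a fixed anchor-drug dose. Cells were fixed and nuclei stained in one step after 5 days, and nuclei were counted. Relative viability is the nuclei count for treated wells divided by that for vehicle wells, reported as medians of duplicate plates.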

Compound in the test “CAP-232 + Tozasertib”: C[C@H]([C@@H](C(=O)N)NC(=O)[C@@H]1CSSC[C@@H](C(=O)N[C@H](C(=O)N[C@@H](C(=O)N[C@H](C(=O)N1)CCCCN)CC2=CNC3=CC=CC=C32)CC4=CC=C(C=C4)O)NC(=O)[C@@H](CC5=CC=CC=C5)N)O [CAP-232] + Cc1cc(Nc2cc(N3CCN(C)CC3)nc(Sc3ccc(NC(=O)C4CC4)cc3)n2)n[nH]1 [Tozasertib] (partner 0.1 µM)
Summed up:
as §1

Compound in the test “CAP-232 + OSI-027”: C[C@H]([C@@H](C(=O)N)NC(=O)[C@@H]1CSSC[C@@H](C(=O)N[C@H](C(=O)N[C@@H](C(=O)N[C@H](C(=O)N1)CCCCN)CC2=CNC3=CC=CC=C32)CC4=CC=C(C=C4)O)NC(=O)[C@@H](CC5=CC=CC=C5)N)O [CAP-232] + COc1cccc2cc(-c3nc([C@H]4CC[C@H](C(=O)O)CC4)n4ncnc(N)c34)[nH]c12 [OSI-027] (partner 0.5 µM)
Summed up:
as §1

Compound in the test “CAP-232 + Palbociclib”: C[C@H]([C@@H](C(=O)N)NC(=O)[C@@H]1CSSC[C@@H](C(=O)N[C@H](C(=O)N[C@@H](C(=O)N[C@H](C(=O)N1)CCCCN)CC2=CNC3=CC=CC=C32)CC4=CC=C(C=C4)O)NC(=O)[C@@H](CC5=CC=CC=C5)N)O [CAP-232] + CC(=O)c1c(C)c2cnc(Nc3ccc(N4CCNCC4)cn3)nc2n(C2CCCC2)c1=O [Palbociclib] (partner 0.5 µM)
Summed up:
as §1

Compound in the test “CAP-232 + Pemetrexed”: C[C@H]([C@@H](C(=O)N)NC(=O)[C@@H]1CSSC[C@@H](C(=O)N[C@H](C(=O)N[C@@H](C(=O)N[C@H](C(=O)N1)CCCCN)CC2=CNC3=CC=CC=C32)CC4=CC=C(C=C4)O)NC(=O)[C@@H](CC5=CC=CC=C5)N)O [CAP-232] + Nc1nc2[nH]cc(CCc3ccc(C(=O)N[C@@H](CCC(=O)O)C(=O)O)cc3)c2c(=O)[nH]1 [Pemetrexed] (partner 0.2 µM)
Summed up: as §1

As to NCI-H2405, the relative viability with CAP-232 + Bortezomib (first compound 0.4 µM) is 1; in the test with CAP-232 + Bortezomib (first compound 1.265 µM), 0.867; with CAP-232 + Bortezomib (first compound 4 µM), 1.07; with CAP-232 + Bortezomib (first compound 12.65 µM), 0.9; with CAP-232 + Tozasertib (first compound 0.4 µM), 0.728; with CAP-232 + Tozasertib (first compound 1.265 µM), 0.751. Besides, the relative viability turned out to be 0.761 with CAP-232 + Tozasertib (first compound 4 µM); 0.683 with CAP-232 + Tozasertib (first compound 12.65 µM); 0.626 with CAP-232 + OSI-027 (first compound 0.4 µM); 0.648 with CAP-232 + OSI-027 (first compound 1.265 µM); 0.693 in the test with CAP-232 + OSI-027 (first compound 4 µM); 0.518 in the test with CAP-232 + OSI-027 (first compound 12.65 µM). For the same cell line, the relative viability in the test with CAP-232 + Palbociclib (first compound 0.4 µM) worked out at 0.553; in the test with CAP-232 + Palbociclib (first compound 1.265 µM), 0.563; in the test with CAP-232 + Palbociclib (first compound 4 µM), 0.536; with CAP-232 + Palbociclib (first compound 12.65 µM) it was 0.369; with CAP-232 + Pemetrexed (first compound 0.4 µM), 1.11; in the test with CAP-232 + Pemetrexed (first compound 1.265 µM), 1.1. Further, the relative viability with CAP-232 + Pemetrexed (first compound 4 µM) is 0.986; with CAP-232 + Pemetrexed (first compound 12.65 µM) it was 0.512.

As for NCI-H2009, the relative viability with CAP-232 + Bortezomib (first compound 0.4 µM) was determined as 1.09; with CAP-232 + Bortezomib (first compound 1.265 µM) it was 0.974; with CAP-232 + Bortezomib (first compound 4 µM), 0.97; in the test with CAP-232 + Bortezomib (first compound 12.65 µM) it was 0.843; with CAP-232 + Tozasertib (first compound 0.4 µM) it was 0.757; in the test with CAP-232 + Tozasertib (first compound 1.265 µM) it was 0.713. In addition, the relative viability in the test with CAP-232 + Tozasertib (first compound 4 µM) worked out at 0.823; with CAP-232 + Tozasertib (first compound 12.65 µM), 0.684; in the test with CAP-232 + OSI-027 (first compound 0.4 µM), 0.667; in the test with CAP-232 + OSI-027 (first compound 1.265 µM), 0.585; in the test with CAP-232 + OSI-027 (first compound 4 µM), 0.719; in the test with CAP-232 + OSI-027 (first compound 12.65 µM) it was 0.358. In addition, the relative viability in the test with CAP-232 + Palbociclib (first compound 0.4 µM) worked out at 0.181; with CAP-232 + Palbociclib (first compound 1.265 µM), 0.244; with CAP-232 + Palbociclib (first compound 4 µM), 0.175; with CAP-232 + Palbociclib (first compound 12.65 µM), 0.153; with CAP-232 + Pemetrexed (first compound 0.4 µM), 1.07; in the test with CAP-232 + Pemetrexed (first compound 1.265 µM) it was 1.06. In addition, the relative viability stood at 1.11 with CAP-232 + Pemetrexed (first compound 4 µM) and 1 with CAP-232 + Pemetrexed (first compound 12.65 µM).

On to HCC-78, for which the relative viability in the test with CAP-232 + Bortezomib (first compound 0.4 µM) worked out at 0.544; in the test with CAP-232 + Bortezomib (first compound 1.265 µM), 0.563; with CAP-232 + Bortezomib (first compound 4 µM), 0.489; with CAP-232 + Bortezomib (first compound 12.65 µM), 0.396; in the test with CAP-232 + Tozasertib (first compound 0.4 µM) it was 0.257; with CAP-232 + Tozasertib (first compound 1.265 µM), 0.405. Besides, the relative viability in the test with CAP-232 + Tozasertib (first compound 4 µM) turned out to be 0.493; in the test with CAP-232 + Tozasertib (first compound 12.65 µM) it was 0.492; with CAP-232 + OSI-027 (first compound 0.4 µM) it was 0.356; in the test with CAP-232 + OSI-027 (first compound 1.265 µM), 0.364; with CAP-232 + OSI-027 (first compound 4 µM), 0.368; with CAP-232 + OSI-027 (first compound 12.65 µM), 0.397. Further, the relative viability was found to be 0.481 with CAP-232 + Palbociclib (first compound 0.4 µM); 0.496 with CAP-232 + Palbociclib (first compound 1.265 µM); 0.552 with CAP-232 + Palbociclib (first compound 4 µM); 0.49 with CAP-232 + Palbociclib (first compound 12.65 µM); 0.939 with CAP-232 + Pemetrexed (first compound 0.4 µM); 0.912 with CAP-232 + Pemetrexed (first compound 1.265 µM). In addition, the relative viability with CAP-232 + Pemetrexed (first compound 4 µM) was 0.901; in the test with CAP-232 + Pemetrexed (first compound 12.65 µM) it was 0.899.

Consider NCI-H2170, for which the relative viability stood at 0.852 with CAP-232 + Tozasertib (first compound 0.4 µM); 0.667 in the test with CAP-232 + Tozasertib (first compound 1.265 µM); 0.615 with CAP-232 + Tozasertib (first compound 4 µM); 0.73 in the test with CAP-232 + Tozasertib (first compound 12.65 µM); 0.658 with CAP-232 + OSI-027 (first compound 0.4 µM); 0.737 with CAP-232 + OSI-027 (first compound 1.265 µM). Further, the relative viability with CAP-232 + OSI-027 (first compound 4 µM) was 0.777; with CAP-232 + OSI-027 (first compound 12.65 µM) it was 0.669; with CAP-232 + Palbociclib (first compound 0.4 µM), 0.358; with CAP-232 + Palbociclib (first compound 1.265 µM) it was 0.38; with CAP-232 + Palbociclib (first compound 4 µM) it was 0.429; with CAP-232 + Palbociclib (first compound 12.65 µM), 0.424. Further, the relative viability turned out to be 0.247 in the test with CAP-232 + Pemetrexed (first compound 0.4 µM), 0.261 in the test with CAP-232 + Pemetrexed (first compound 1.265 µM), 0.267 with CAP-232 + Pemetrexed (first compound 4 µM) and 0.244 in the test with CAP-232 + Pemetrexed (first compound 12.65 µM).

As to NCI-H1793, the relative viability in the test with CAP-232 + Tozasertib (first compound 0.4 µM) came to 0.375; in the test with CAP-232 + Tozasertib (first compound 1.265 µM) it was 0.355; with CAP-232 + Tozasertib (first compound 4 µM), 0.486; in the test with CAP-232 + Tozasertib (first compound 12.65 µM) it was 0.356; with CAP-232 + OSI-027 (first compound 0.4 µM), 0.282; in the test with CAP-232 + OSI-027 (first compound 1.265 µM) it was 0.253. Also, the relative viability in the test with CAP-232 + OSI-027 (first compound 4 µM) stood at 0.196; with CAP-232 + OSI-027 (first compound 12.65 µM), 0.25; with CAP-232 + Palbociclib (first compound 0.4 µM) it was 0.401; with CAP-232 + Palbociclib (first compound 1.265 µM) it was 0.313; with CAP-232 + Palbociclib (first compound 4 µM), 0.303; with CAP-232 + Palbociclib (first compound 12.65 µM) it was 0.324. The relative viability with CAP-232 + Pemetrexed (first compound 0.4 µM) is 1.01; with CAP-232 + Pemetrexed (first compound 1.265 µM) it was 0.61; in the test with CAP-232 + Pemetrexed (first compound 4 µM), 0.905; in the test with CAP-232 + Pemetrexed (first compound 12.65 µM), 0.696.

HCC-366: the relative viability with CAP-232 + Bortezomib (first compound 0.4 µM) worked out at 1.22; with CAP-232 + Bortezomib (first compound 1.265 µM), 0.942; with CAP-232 + Bortezomib (first compound 4 µM), 1.15; with CAP-232 + Bortezomib (first compound 12.65 µM) it was 1; in the test with CAP-232 + Tozasertib (first compound 0.4 µM), 0.132; with CAP-232 + Tozasertib (first compound 1.265 µM) it was 0.106. Moreover, the relative viability with CAP-232 + Tozasertib (first compound 4 µM) stood at 0.108; with CAP-232 + Tozasertib (first compound 12.65 µM), 0.078; in the test with CAP-232 + OSI-027 (first compound 0.4 µM) it was 0.986; with CAP-232 + OSI-027 (first compound 1.265 µM) it was 0.875; with CAP-232 + OSI-027 (first compound 4 µM), 1.22; with CAP-232 + OSI-027 (first compound 12.65 µM) it was 0.82. Further, the relative viability with CAP-232 + Palbociclib (first compound 0.4 µM) was found to be 0.454; with CAP-232 + Palbociclib (first compound 1.265 µM), 0.362; with CAP-232 + Palbociclib (first compound 4 µM), 0.41; with CAP-232 + Palbociclib (first compound 12.65 µM), 0.331; with CAP-232 + Pemetrexed (first compound 0.4 µM), 0.201; in the test with CAP-232 + Pemetrexed (first compound 1.265 µM), 0.175. The relative viability worked out at 0.202 with CAP-232 + Pemetrexed (first compound 4 µM) and 0.17 with CAP-232 + Pemetrexed (first compound 12.65 µM).

Regarding NCI-H1651, the relative viability worked out at 1.01 with CAP-232 + Bortezomib (first compound 0.4 µM); 0.939 with CAP-232 + Bortezomib (first compound 1.265 µM); 1.02 in the test with CAP-232 + Bortezomib (first compound 4 µM); 0.953 with CAP-232 + Bortezomib (first compound 12.65 µM); 0.665 in the test with CAP-232 + Tozasertib (first compound 0.4 µM); 0.681 in the test with CAP-232 + Tozasertib (first compound 1.265 µM). Besides, the relative viability with CAP-232 + Tozasertib (first compound 4 µM) worked out at 0.732; with CAP-232 + Tozasertib (first compound 12.65 µM), 0.625; with CAP-232 + OSI-027 (first compound 0.4 µM), 0.721; with CAP-232 + OSI-027 (first compound 1.265 µM), 0.703; with CAP-232 + OSI-027 (first compound 4 µM), 0.89; with CAP-232 + OSI-027 (first compound 12.65 µM), 0.522. Besides, the relative viability with CAP-232 + Palbociclib (first compound 0.4 µM) came to 0.561; with CAP-232 + Palbociclib (first compound 1.265 µM), 0.525; with CAP-232 + Palbociclib (first compound 4 µM), 0.511; with CAP-232 + Palbociclib (first compound 12.65 µM), 0.522; with CAP-232 + Pemetrexed (first compound 0.4 µM), 0.686; with CAP-232 + Pemetrexed (first compound 1.265 µM), 0.514. For the same cell line, the relative viability with CAP-232 + Pemetrexed (first compound 4 µM) is 0.676; in the test with CAP-232 + Pemetrexed (first compound 12.65 µM), 0.709.
